Results reported in US11959486B2, “Stable liquid formulation of AMG 416 (etelcalcetide)” (AMGEN INC., priority 2013, dated 2024).

Tests used:
physchem = details: succinate buffered saline, pH 4.5
Protocol: In this study, the solubility of AMG 416 in succinate buffered-saline was investigated. […] After briefly vortexing, a clear solution was obtained with a nominal concentration of 400 mg/mL. Because expansion of the solution volume was not determined, the solubility of AMG 416 can be conservatively stated as at least 200 mg/mL. Although the maximal solubility was not determined in this experiment, AMG 416 is soluble in pH 4.5 succinate buffered saline to concentrations of at least 200 mg/mL.

[1] = Concentration dependent stability in 25 mM succinate-buffered saline pH 4.5, HPLC purity, with Arrhenius extrapolation (Example 2); format: physicochemical; details: for Degradation at 29 days, 40 C / Degradation at 29 days, RT: pH 4.5; for Predicted extent of degradation at 1 yr 5° C. / Predicted extent of degradation at 1 yr RT / Predicted extent of degradation at 2 yr 5° C. / Predicted extent of degradation at 2 yr RT: pH 4.5 SBS, from RT 29-day data
Protocol: In this study, the stability of AMG 416 over a range of concentrations in succinate-buffered saline (pH 4.5) was investigated. The solution of […] AMG 416 from Example 1, supra, was diluted further with 200 μL of succinate-buffered saline (pH 4.5) to a nominal concentration of 200 mg/mL, which was serially diluted with succinate-buffered saline (pH 4.5) to 66, 20, 6.7, 2.2 and 0.67 mg/mL. The samples were kept at room temperature (i.e., about 25° C.) and aliquots were analyzed by HPLC at intervals up to 29 days. A second series of AMG 416 samples covering the concentration range 20 to 0.67 mg/mL were incubated at 40° C. and analyzed in the same manner.
The room temperature 29-day data from Table 1 was extrapolated to the stated time period by assuming linear degradation kinetics. Room temperature data was extrapolated to 5° C. A 20° C. difference was assumed, equivalent to a 4-fold lower rate of degradation. Extrapolations were carried out using a simple application of the Arrhenius equation, where at 10° C. rise in temperature provides a 2-fold increase in reaction rate, assuming the same reaction mechanism and that activation energy for each relevant reaction is around 50 kJ/mol.
Comparison of the data shown in Tables 1 and 2 allows assessment of temperature increase as a tool to predict the long-term stability of AMG 416 solutions.

[2] = Solution stability in different buffers (acetate, citrate, lactate, succinate), HPLC (Example 5); format: physicochemical; details: all buffers tested
Protocol: In this study, the stability of liquid formulations of AMG 416 was evaluated in four different buffers over 9 days. Buffered saline solutions were prepared at 25 mM concentration, pH 4.5, for four different anionic buffers in the sodium salt form: acetate, citrate, lactate and succinate. […] The solutions were diluted further with pH 4.5 buffer to 1.0 mg/mL and 0.25 mg/mL. Each of the resulting solutions was split to two glass HPLC vials, one stored at 2-8° C. and one at room temperature (about 25° C.). HPLC analysis was conducted at 0, 4 and 9 days for determination of potency and purity.

## CC(=O)N[C@H](CSSC[C@H](N)C(=O)O)C(=O)N[C@H](C)C(=O)N[C@H](CCCNC(=N)N)C(=O)N[C@H](CCCNC(=N)N)C(=O)N[C@H](CCCNC(=N)N)C(=O)N[C@H](C)C(=O)N[C@H](CCCNC(=N)N)C(N)=O [AMG 416, N-acetyl-D-cysteinyl-D-alanyl-D-arginyl-D-arginyl-D-arginyl-D-alanyl-D-arginamide disulfide with L-cysteine]
physchem
  solubility: ≥ 200 mg/mL
[1]; 0.67 mg/mL
  Degradation at 29 days, 40 C: 5.0%
  Degradation at 29 days, RT: 0.1%
  Predicted extent of degradation at 1 yr 5° C.: 0.3%
  Predicted extent of degradation at 1 yr RT: 1.4%
  Predicted extent of degradation at 2 yr 5° C.: 0.7%
  Predicted extent of degradation at 2 yr RT: 2.7%
[1]; 2.2 mg/mL
  Degradation at 29 days, 40 C: 5.0%
  Degradation at 29 days, RT: 0.2%
  Predicted extent of degradation at 1 yr 5° C.: 0.7%
  Predicted extent of degradation at 1 yr RT: 2.6%
  Predicted extent of degradation at 2 yr 5° C.: 1.3%
  Predicted extent of degradation at 2 yr RT: 5.2%
[1]; 6.7 mg/mL
  Degradation at 29 days, 40 C: 9.4%
  Degradation at 29 days, RT: 0.5%
  Predicted extent of degradation at 1 yr 5° C.: 1.7%
  Predicted extent of degradation at 1 yr RT: 7.0%
  Predicted extent of degradation at 2 yr 5° C.: 3.5%
  Predicted extent of degradation at 2 yr RT: 13.9%
[1]; 20 mg/mL
  Degradation at 29 days, 40 C: 26.7%
  Degradation at 29 days, RT: 0.9%
  Predicted extent of degradation at 1 yr 5° C.: 2.6%
  Predicted extent of degradation at 1 yr RT: 10.4%
  Predicted extent of degradation at 2 yr 5° C.: 5.2%
  Predicted extent of degradation at 2 yr RT: 20.9%
[1]; 66 mg/mL
  Predicted extent of degradation at 1 yr 5° C.: 25.0%
  Predicted extent of degradation at 1 yr RT: >100%
  Predicted extent of degradation at 2 yr 5° C.: 50.1%
  Predicted extent of degradation at 2 yr RT: >100%
[2]
  stability during the 9 day study: good stability
